Numbers after ± are expanded uncertainties.
Assay: excess molar enthalpy (molar enthalpy of mixing); xn = mol fraction of the nth substance listed
Details: 298.15 K, 101 kPa, Liquid, Flow calorimetry

excess molar enthalpy (x2 = 0.2499): -0.00906 ± 0.000263 kcal/mol
excess molar enthalpy (x2 = 0.5): -0.0108 ± 0.000263 kcal/mol
excess molar enthalpy (x2 = 0.75): -0.00837 ± 0.000239 kcal/mol
Structure (SMILES): CC(C)O [propan-2-ol] + CCCO
